Entries after “also recorded” stand apart in the source; their conditions may differ. One block for each compound: values may come before it.
Assays:
[1] = system: phosphodiesterase; conditions: stated as well established; cited from earlier work
[2] = system: canine left ventricle; test: cardiac energetics (O2 consumption, mechanical efficiency) in anesthetized control and heart failure dogs; assay type: in vivo
Procedure: 3. Heart failure was induced by chronic rapid ventricular pacing at a rate of 210 bpm for 3 weeks, followed by 240 bpm for one week. This brought the dogs into heart failure with an average left ventricular end-diastolic pressure (LVEDP) of 23.5∀5.2 mm Hg. Acute pacing (140 bpm) was used to keep heart rate constant during the experiments.
b. Oxygen consumption per unit time (MVO2) in the left circumflex artery territory was calculated from the difference in oxygen saturation in simultaneously sampled coronary sinus and aortic blood, multiplied by left circumflex coronary blood flow. This, in turn, was calculated from flow velocity multiplied by left circumflex diameter. Left circumflex diameter was analyzed from a film projector (CAP 35B, Angiogram Projection System) using quantitative angiography (Cath View v1.36, Image Comm Systems).
c. The external useful work of the LV was indexed as stroke work (SW=area of pressure-volume loops). Both stroke SW and MVO2 were converted to Joules per beat (Suga, H. et al. 1983, Circ. Res. 53:306-318). Cardiac mechanical efficiency was calculated as SW/MVO2. Hemodynamic pressure-dimension data were digitized at 200 Hz and stored for subsequent analysis on a personal computer using customized software.
Isoflurane was chosen as the anesthetic because of its relatively mild and stable effect on the cardiovascular system (R M. Jones, British Journal of Anaesthesia, 56 Suppl 1:57S-69S (1984); E. I. Eger, British Journal of Anaesthesia, 56 Suppl 1:71S-99S (1984)). A doppler flow velocimeter (0.014 Cardiometrics) and a 6 Fr. angiography catheter (AL-I or JL 3.5, Cordis Laboratories Inc) were inserted through an 8 Fr sheath (Cordis) in the right femoral artery and advanced to the left circumflex coronary artery. These catheters permitted measurement of coronary flow and injection of contrast for the measurement of coronary diameter. A catheter (A2 multipurpose, 6 Fr.) was advanced from the left external jugular vein via a 7 Fr. sheath (Cordis) into the great cardiac vein for withdrawal of mixed coronary venous blood. To measure cardiac oxygen consumption, blood samples from the coronary sinus and the femoral artery were obtained simultaneously. At each time point, blood flow velocity in the left circumflex artery was measured and coronary angiography was performed.
In 4 of 11 experiments, preexisting indwelling sonomicrometer crystals, Konigsberg micromanometers, and IVC occluders (see above) were used for dimension and pressure measurements, and for acute preload reduction. In the other 7 experiments, a combined micromanometer-conductance catheter (M!illar) was advanced to the LV and positioned for continuous measurement of LV pressure and volume via a 7 Fr. sheath (Cordis) in the femoral artery. A Swan-Ganz catheter (Arrow, 7 Fr.) was advanced via a 9F sheath in the femoral vein to the pulmonary artery for measurement of cardiac output and for hypertonic saline wash-in (Baan, J., E. van der Velde, A. D. van Dijk and et al. 1992, In Cardiovascular system dynamics: Models and measurements. Anonymous Plenum Press, New York, 569; Kass, D. A. et al. 1986. Circulation 73:586-595) to calibrate the volume signal. This catheter was then replaced with a balloon occlusion catheter (Cordis) positioned in the IVC for acute preload reduction for pressure-volume analysis.
A combined manometer-conductance catheter was positioned in the left ventricle for continuous measurement of volume and pressures in the ventricle and aorta. Volume was calibrated with measurement of cardiac output and hypertonic saline wash-in. In addition, dogs were acutely instrumented a doppler flow velocimeter probe and an angiography catheter in the left circumflex coronary artery to measure coronary flow velocity and coronary diameter. […]

[3] = system: rat cardiac muscle; test: in vitro calcium-sensitizing assay: contractile force and fura-2 [Ca2+]i in rat cardiac muscle
[4] = system: LV contractility in conscious dogs; test: cardiac performance in conscious dogs before and after pacing-induced heart failure (pressure-dimension relations); assay type: in vivo; conditions: for PRSW (slope of stroke work/end-diastolic dimension relation): 200 mg infused over 30 minutes in the right atrium
From the text: 1. Surgical preparation for chronic dog protocol. Male mongrel dogs (20-30 kg) were anesthetized with 1-2% halothane after induction with sodium pentothal. The chest was opened via a lateral thoracotomy, and indwelling catheters (Tygon; Norton Plastics and Synthetic Division) were secured in the right atrium (for drug infusion) and in the descending aorta (for pressure measurement). An indwelling high fidelity micromanometer (P22, Konigsberg Instruments) was placed in the left ventricle (LV) through an apical stab. […] Pacing leads were attached to the left atrium for acute pacing during experimentation, and epicardial leads for chronic pacing were attached to the right ventricular free wall and connected to a programmable pacemaker (Spectrax, Medtronics) within a subcutaneous pocket. The chest was closed in layers, catheters and leads were externalized to the mid-scapulae, and protected by an external jacket. Analgesia (morphine, 10 mg s.c.) was given in the immediate postoperative period as necessary. Antibiotics were administered for the first 72 hours after surgery. The dogs were allowed to recover fully for 7-10 postoperative days before experimentation. The surgical and experimental protocol was approved by Johns Hopkins School of Medicine Animal Care and Use Committee.
3. Heart failure was induced by chronic rapid ventricular pacing at a rate of 210 bpm for 3 weeks, followed by 240 bpm for one week. […] Acute pacing (140 bpm) was used to keep heart rate constant during the experiments.
a. The analysis of pressure-dimension relationships and the arterial pressure response allowed the evaluation of variables related to myocardial systolic and diastolic performance. […] Preload was indexed as the left ventricular end diastolic anterior -posterior short axis dimension (LVEDD) or the LV end-diastolic volume from the conductance catheter. Afterload was evaluated as effective arterial elastance (Ea, ratio of LV systolic pressure to stroke dimension (Kass, D. A. 1997, Myocardial Mechanics. In Heart Failure. P. Poole-Wilson et al., eds. Churchill Livingstone, New York. 87-108; Kelly, R. P., C. T. Ting, and T. M. Yang. 1992, Circulation 86:513-521). This parameter is not preload-dependent and has been validated to reflect total afterload, which incorporates systemic vascular resistance, aortic impedance, and the reflected wave properties of the vasculature. Contractility was indexed by +dP/dt and the load-independent parameter, preload-recruitable stroke work (PRSW; slope of stoke work/end-diastolic dimension relation) (Kass, D. A., 1986, Circulation 73:586-595). Diastolic performance was measured by peak −dP/dt, time to peak filling rate (ttpf), and the time constant of relaxation (tau). Tau was calculated using the method of Weiss and colleagues (Ingwall, J. S. 1993, Circulation 87:VII-58-VII-62.).
(§1) The ECG was continuously monitored.

[5] = value used for the dose extrapolation in 25 kg dogs; cited from earlier work
[6] = system: cardiac muscle; test: steady-state analysis of calcium sensitivity (steady-state force versus steady-state [Ca2+]i); assay type: cell-based, rat; conditions: for effects on calcium sensitivity, comparison of the two agents: FIG. 4
From the text: A particularly rigorous method of assessing calcium sensitivity is by steady-state analysis by procedures disclosed in Gao, W. D. et al., supra. […] That response represents defining characteristics of a calcium-sensitizing agent.

[7] = plasma level estimate in 25 kg dogs; assay type: in vivo; conditions: 200 mg i.v. in 25 kg dogs
From the text: as §1

[8] = after a standard dose (300 mg p.o.); cited from earlier work

plasma level estimated to be attained [7]: 4500 ng/mL
Structure (SMILES): Oc1ncnc2[nH]ncc12 [allopurinol, 4-hydroxy-pyrazolo[3,4-d]pyrimidine]
phosphodiesterase inhibition [1]: no phosphodiesterase inhibition
oxygen utilization ([2]; failing canine left ventricle, 200 mg iv): decreases oxygen utilization
myocardial arterio-venous oxygen difference ([2]; heart failure dogs, 200 mg iv): not changed
change in left circumflex blood flow ([2]; heart failure dogs, 10 min post-infusion of 200 mg iv over 30 minutes, p=0.0015): −40±6%
calcium ion concentration ([Ca2+]i) ([3]; fura-2, FIG. 1): decreasing calcium ion concentration
contractile force ([3]; relative to control not exposed, FIG. 1): increases contractile force
effect on healthy dogs ([4]; acted only in dogs with heart failure): did not adversely affect healthy dogs
PRSW (slope of stroke work/end-diastolic dimension relation) ([4]; after pacing-induced heart failure): increased the slope after heart failure
change of (dP/dt)max at the peak response ([4]; control dogs (n=10), 10 min after end of infusion, p=0.01): +8.3±3.2%
(dP/dt)max at the peak response ([4]; control dogs (n=10), 10 min after end of infusion, base line value 3101±162): 3373±225 mm Hg/s
PRSW (slope of stroke work/end-diastolic dimension relation) ([4]; control dogs): did not affect the slope of the PRSW relation; also recorded: not significantly changed
effect on diastolic function ([4]; in vivo use, dogs): no adverse effect on diastolic function
distribution volume [5]: 1.6 L/kg
effects on calcium sensitivity, comparison of the two agents [6]: essentially indistinguishable effects on calcium sensitivity
maximal force ([6]; steady-state analysis, FIG. 2): increased maximal force
contractile activation curve (steady-state force vs steady-state [Ca2+]i) ([6]; versus control muscles exposed to no drug, FIG. 2): shifted the contractile activation curve to lower [Ca^2+]i
plasma levels achieved in humans [8]: 3000 to 9000 ng/mL

Structure (SMILES): CC(CCc1ccc(O)cc1)NCCc1ccc(O)c(O)c1 (centres unmarked) [dobutamine]
increase of oxygen consumption ([2]; heart failure dogs, infusion 10 μg/Kg/min, p=0.007): 145±53.0%
change of SW/MVO2 ([2]; heart failure dogs, infusion 10 μg/Kg/min, p=0.05): −29.3±6.8%
mechanical efficiency ([2]; heart failure dogs, infusion 10 μg/Kg/min, FIG. 9): significant decrease in mechanical efficiency

Structure (SMILES): Oc1nc(O)c2cn[nH]c2n1 [oxypurinol, 4,6-dihydroxypyrazolo[3,4-d]pyrimidine]
effects on calcium sensitivity, comparison of the two agents [6]: essentially indistinguishable effects on calcium sensitivity
force at any given [Ca2+]i ([6]; treated versus control muscles, FIG. 3): generate more force at any given [Ca^2+]i than control muscles
